The source of these data is PMC7036753, “Lipidated Analogs of the LL-37-Derived Peptide Fragment KR12—Structural Analysis, Surface-Active Properties and Antimicrobial Activity” (International Journal of Molecular Sciences, 2020).

Data set [1] concerns K. pneumoniae ATCC 700603. The format is cell-based, Klebsiella pneumoniae. The following applies: K. pneumoniae ATCC 700603; Mueller-Hinton Broth, 18 h. In outline:
(§1)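 Following CLSI guidance, compounds (0.5–256 µg/mL) are incubated with bacteria (0.5 × 10^5 CFU/mL, Mueller–Hinton broth) for 18 h at 37 °C. Each MIC reflects complete visible growth inhibition, measured in triplicate with growth and sterility controls.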

In data set [2] the test system is S. aureus ATCC 6538 biofilm. The class given is cell-based, Staphylococcus aureus. The following applies: S. aureus ATCC 6538 biofilm, 24 h.
In data set [3] the test system is S. aureus ATCC 12598 biofilm. The class given is cell-based, Staphylococcus aureus. The following applies: S. aureus ATCC 12598 biofilm, 24 h.
The test system of data set [4] is S. aureus ATCC 25923 biofilm. The class given is cell-based, Staphylococcus aureus. The following applies: S. aureus ATCC 25923 biofilm, 24 h.
Data set [5] relates to S. aureus ATCC 33591 (MRSA) biofilm. The format is cell-based, Staphylococcus aureus. The settings on record: S. aureus ATCC 33591 biofilm, 24 h.
The subject of data set [6] is S. aureus ATCC 9144 biofilm. The class given is cell-based, Staphylococcus aureus. The settings on record: S. aureus ATCC 9144 biofilm, 24 h.
Another data set relates to S. aureus ATCC 12598. The class given is cell-based, Staphylococcus aureus. The settings on record: S. aureus ATCC 12598; Mueller-Hinton Broth, 18 h. A digest of the protocol: as §1
For another data set, the system named is S. aureus ATCC 6538. The class given is cell-based, Staphylococcus aureus. The settings on record: S. aureus ATCC 6538; Mueller-Hinton Broth, 18 h. A digest of the protocol:
as §1

A further data set has as its system S. aureus ATCC 25923. The format is cell-based, Staphylococcus aureus. The following applies: S. aureus ATCC 25923; Mueller-Hinton Broth, 18 h. In outline:
as §1

The subject of a further data set is S. aureus ATCC 9144. The class given is cell-based, Staphylococcus aureus. The following applies: S. aureus ATCC 9144; Mueller-Hinton Broth, 18 h. In outline: as §1
The test system of data set [7] is S. aureus ATCC 33591 (MRSA). The class given is cell-based, Staphylococcus aureus. The following applies: S. aureus ATCC 33591 (MRSA); Mueller-Hinton Broth, 18 h. In outline:
as §1

For the next data set, the system named is K. aerogenes ATCC 13048. The class given is cell-based, Klebsiella aerogenes. The settings on record: K. aerogenes ATCC 13048; Mueller-Hinton Broth, 18 h. A digest of the protocol:
as §1

Another data set concerns P. aeruginosa ATCC 9027. The format is cell-based, Pseudomonas aeruginosa. The following applies: P. aeruginosa ATCC 9027; Mueller-Hinton Broth, 18 h. A digest of the protocol:
as §1

Data set [8] has as its system human red blood cells (hRBCs). In words: Hemolysis assay. The settings on record: concentration range 0.5–256 μg/mL. The class given is cell-based. The method, then: Then the stock RBCs solution was added up to a final volume of 100 μL with a 4% concentration of erythrocytes (v/v). The control wells for 0 and 100% hemolysis were also prepared. They consisted of RBCs suspended in PBS and 1% of Triton-X 100, respectively.

In brackets after ≈: the same amount, converted by molar mass. Peptide text beside a SMILES is read from it. * marks the point of attachment. Bz = O=C(c1ccccc1)*

The MIC is the least concentration at which growth counts as inhibited. A higher MIC goes with weaker potency. For `CC[C@H](C)[C@H](NC(=O)[C@H](CCCNC(=N)N)NC(=O)[C@H](CCC(N)=O)NC(=O)[C@@H](NC(=O)[C@@H](NC(=O)[C@H](CCCNC(=N)N)NC(=O)[C@H](CCCCN)NC(=O)c1ccccc1)[C@@H](C)CC)C(C)C)C(=O)N[C@@H](CCCCN)C(=O)N[C@@H](CC(=O)O)C(=O)N[C@@H](Cc1ccccc1)C(=O)N[C@@H](CC(C)C)C(=O)N[C@@H](CCCNC(=N)N)C(N)=O` [VIII, Benzoic acid-KR12-NH2] (Bz-KRIVQRIKDFLR-NH2), the MIC came to 16 µg/mL (≈ 9.55 µM) in [1]; 16 µg/mL (≈ 9.55 µM) with S. aureus ATCC 12598; 8 µg/mL (≈ 4.78 µM) against S. aureus ATCC 6538; 32 µg/mL (≈ 19.1 µM) with S. aureus ATCC 25923; 16 µg/mL (≈ 9.55 µM) with S. aureus ATCC 9144; 32 µg/mL (≈ 19.1 µM) in data set [7]. The MIC with K. aerogenes ATCC 13048 is 16 µg/mL (≈ 9.55 µM); against P. aeruginosa ATCC 9027, 8 µg/mL (≈ 4.78 µM). Further, the MBEC in [2] was found to be 32 µg/mL; in [3], 16 µg/mL; in data set [4] it was 64 µg/mL; in data set [5], 32 µg/mL; in data set [6], 16 µg/mL. For the same compound, the “hemolysis of hRBCs” value in data set [8] was “did not cause hemolysis”.
